From patent publication US20080096884A1, “4-Aminoquinoline-3-Carboxamide Derivatives as Pde4 Inhibitors” (priority 2003, published 2008) come the findings set out here.

The structures appear in SMILES notation.

In one assay the target is PDE5 (human recombinant) (Homo sapiens, UniProt O76074). Kind of assay: Inhibition of PDE5 catalytic activity (SPA). Type of assay: biochemical. Conditions: read-out: PDE5 mean pIC50 (converted). An excerpt:
Human recombinant PDE5 is disclosed in K. Loughney et al., “Isolation and characterisation of cDNAs encoding PDE5A, a human cGMP-binding, cGMP-specific 3′,5′-cyclic nucleotide phosphodiesterase”, Gene, 1998, 216, 139-147.
The ability of compounds to inhibit catalytic activity at PDE4B or 4D (human recombinant), PDE3 (from bovine aorta) PDE5 (human recombinant) or PDE 6 (from bovine retina) may be determined by Scintillation Proximity Assay (SPA) in 96-well format. Test compounds (preferably as a solution in DMSO, e.g. 2 microlitre (μl) volume) were preincubated at ambient temperature in Wallac Isoplates (code 1450-514) with PDE enzyme in 50 mM Tris-HCl buffer pH 7.5, 8.3 mM MgCl2, 1.7 mM EGTA, 0.05% (w/v) bovine serum albumin for 10-30 minutes. The enzyme concentration was adjusted so that control rates are linear over the asay incubation period. […] Bound radioactive product was measured using a WALLAC TRILUX 1450 MicroBeta scintillation counter. […] Curves were analysed using ActivityBase and XLfit (ID Businesss Solutions Limited, 2 Ocean Court, Surrey Research Park, Guildford, Surrey GU2 7QB, United Kindgom). Results were expressed as pIC50 values.

The target in assay [1] is T1, PDE4B (human recombinant) (Homo sapiens, UniProt Q07343).
T1 construct: made in house; host or cells: Saccharomyces cerevisiae strain GL62 (as described in the cited WO 94/20079)
T1 sequence (Q07343 1-564 isoform Q07343-2): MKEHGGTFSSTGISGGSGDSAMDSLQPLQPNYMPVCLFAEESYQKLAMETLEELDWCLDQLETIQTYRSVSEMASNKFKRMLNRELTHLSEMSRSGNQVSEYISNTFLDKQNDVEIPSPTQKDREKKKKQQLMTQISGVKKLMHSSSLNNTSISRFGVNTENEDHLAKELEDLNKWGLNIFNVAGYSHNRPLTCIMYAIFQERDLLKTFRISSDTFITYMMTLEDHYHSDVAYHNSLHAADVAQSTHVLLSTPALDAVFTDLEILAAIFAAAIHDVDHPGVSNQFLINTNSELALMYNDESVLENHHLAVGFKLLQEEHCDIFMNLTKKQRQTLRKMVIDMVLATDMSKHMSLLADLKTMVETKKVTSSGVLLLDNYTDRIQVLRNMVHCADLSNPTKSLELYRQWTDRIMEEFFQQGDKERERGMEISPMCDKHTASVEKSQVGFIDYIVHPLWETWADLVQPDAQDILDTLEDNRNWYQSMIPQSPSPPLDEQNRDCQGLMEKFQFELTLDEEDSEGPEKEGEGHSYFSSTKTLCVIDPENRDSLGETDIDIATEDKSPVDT
The assay can be described thus: Inhibition of PDE4B catalytic activity (SPA or IMAP FP assay). Type of assay: biochemical. As to conditions: SPA or FP assay not specified, read-out: PDE4B mean pIC50 (converted). The source says:
Human recombinant PDE4B, in particular the 2B splice variant thereof (HSPDE4B2B), is disclosed in WO 94/20079 and also in M. M. McLaughlin et al., “A low Km, rolipram-sensitive, cAMP-specific phosphodiesterase from human brain: cloning and expression of cDNA, biochemical characterisation of recombinant protein, and tissue distribution of mRNA”, J. Biol. Chem., 1993, 268, 6470-6476. […]
The ability of compounds to inhibit catalytic activity at PDE4B or 4D (human recombinant), PDE3 (from bovine aorta) PDE5 (human recombinant) or PDE 6 (from bovine retina) may be determined by Scintillation Proximity Assay (SPA) in 96-well format. […] Bound radioactive product was measured using a WALLAC TRILUX 1450 MicroBeta scintillation counter. […] Curves were analysed using ActivityBase and XLfit (ID Businesss Solutions Limited, 2 Ocean Court, Surrey Research Park, Guildford, Surrey GU2 7QB, United Kindgom). Results were expressed as pIC50 values.
The ability of compounds to inhibit catalytic activity at PDE4B (human recombinant) and PDE4D (human recombinant) was determined by IMAP Fluorescence Polarisation (FP) assay (Molecular Devices Ltd code: R8062) in 384-well format. […]
Fluorescein adenosine 3′,5′-cyclic phosphate (Molecular Devices Ltd code: R7091) was added to give ˜40 nM final concentration. […] Curves were analysed using ActivityBase and XLfit (ID Businesss Solutions Limited). […]

`COc1cccc(Nc2c(C(N)=O)cnc3ccc(S(=O)(=O)N(C)C)cc23)c1` [Example 2, 6-[(dimethylamino)sulfonyl]4-{[3-(methyloxy)phenyl]amino}-3-quinolinecarboxamide]: the IC50 was 15.8 µM on PDE5 (human recombinant) and 0.001 µM in assay [1].

`NC(=O)c1cnc2ccc(S(=O)(=O)N3CCOCC3)cc2c1Nc1cccc(Cl)c1` [Example 4]: the IC50 at PDE5 (human recombinant) was 12.6 µM; in assay [1], 0.00251 µM.
